# Data reported in PubChem BioAssay (NCI).
# Several values for one entry are separate records, joined by “and”; a condition that tells them apart may be missing. Equal values may be shown once.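 Five compound concentrations were applied to cells in 96-well plates for 48 hours; endpoints were derived by simple linear interpolation of the resulting dose-response curve. Here, GI50 denotes the concentration required for 50% inhibition of growth. TGI is the concentration that stops growth completely.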
# Experiments:
# Experiment in all cases: NCI-60 cell line screen, 48 h
# [1] = system: SK-OV-3 ovarian
# [2] = system: ACHN renal
# [3] = system: HOP-92 NSCLC
# [4] = system: MCF7 breast
# [5] = system: SF-295 CNS
# [6] = system: U251 CNS
# [7] = system: EKVX NSCLC
# [8] = system: NCI-H460 lung
# [9] = system: A549 NSCLC
# [10] = system: A498 renal
Structure (SMILES),TGI [1],TGI [2],TGI [3],TGI [4] [µM],TGI [5],TGI [6],TGI [7],TGI [8],TGI [9],TGI [10],GI50 [1] [µM],GI50 [2] [µM],GI50 [4] [µM],GI50 [5] [µM],GI50 [6] [µM],GI50 [10] [µM],GI50 [8] [µM],GI50 [9] [µM],GI50 [3] [µM],GI50 [7] [µM]
C=CCC1(c2ccc(OC)cc2)C=CC(=O)CC1 (centres undefined),> 100 µM,> 100 µM,> 100 µM,> 100,> 100 µM,> 100 µM,> 100 µM,> 100 µM,> 100 µM,,,,,,,,,,,
COC(=O)/C(=N\NC(N)=S)C(C(=O)OC)C(=O)C(=O)Nc1ccc(C)cc1 (centres undefined),> 100 µM,> 100 µM,,,> 100 µM,> 100 µM,> 100 µM,> 100 µM,> 100 µM,> 100 µM,,,,,,,,,,
Cc1cc2c(=O)c3ccccc3[nH]c2c(C(N)=O)c1C,> 100 µM,> 100 µM,,,> 100 µM,> 100 µM,> 100 µM,> 100 µM,> 100 µM,,,,,,,,,,,
Cc1ccccc1C(=O)c1cc(O)ccc1O,> 100 µM,> 100 µM,> 100 µM,,> 100 µM,> 100 µM,> 100 µM,> 100 µM,> 100 µM,> 100 µM,,,,,,,,,,
N#CNC(=NCc1ccccc1)N(Cc1ccccc1)Cc1ccccc1,,,> 31.6 µM,> 100,29 µM,> 31.6 µM,,> 31.6 µM,> 31.6 µM,,,,,,,,,,,
CN(C)CCC(/C=C/c1ccccc1)=N\Nc1ccccc1,9.8 µM,2.31 µM,,,2.21 µM,4.58 µM,6.47 µM,10.7 µM,4.21 µM,28.2 µM,,,,,,,,,,
COc1cc(Cl)cc(-c2nn(-c3cccc(NC(=O)c4ccc(N5CCOCC5)c(C(F)(F)F)c4)c3)cc2-c2ccncc2)c1,> 100 µM,> 100 µM,,> 100,14.8 µM,> 100 µM,,> 100 µM,> 100 µM,> 100 µM,> 100,7.31,8.71,2.21,5.03,16.2,4.8,9.15,,
COCC(OC)C(CC=C(C#N)C#N)OC (centres undefined),> 100 µM,> 100 µM,> 100 µM,,> 100 µM,> 100 µM,> 100 µM,,> 100 µM,> 100 µM,,,,,,,,,,
CCOC(=O)c1nc2c(OC)nn(O)cc-2c1[N+](=O)[O-],> 100 µM,31 µM,,,> 100 µM,30.8 µM,36.4 µM,49.2 µM,> 100 µM,36.2 µM,,,,,,,,,,
COc1c(O)c2c(=O)cc3c4c5c(cc(=O)c6c(O)c(OC)c(CC(C)O)c(c(c1CC(C)O)c24)c65)OCO3 (centres undefined),20.4 µM,5.96 µM,5.47 µM,,6.09 µM,4.08 µM,,2.32 µM,8.39 µM,,,,,,,,,,,
COc1ccc2c(c1OCC(=O)O)C(=O)C(CCC(=O)O)CC2 (centres undefined),> 100 µM,> 100 µM,,,> 100 µM,> 100 µM,> 100 µM,> 100 µM,> 100 µM,> 100 µM,,,,,,,,,,
COC(=O)/C(C#N)=C1\N=NNN1c1ccc(OC)cc1,> 100 µM,> 100 µM,> 100 µM,,> 100 µM,> 100 µM,> 100 µM,> 100 µM,> 100 µM,> 100 µM,,,,,,,,,,
CCCCCCCCCCCCCCCC(=O)OCCOCCOCCOCc1ccccc1,,> 100 µM,69.4 µM,,98.4 µM,> 100 µM,> 100 µM,> 100 µM,> 100 µM,> 100 µM,,,,,,,,,,
CCN1CCN(c2cc(C)c3cc(NC(=O)c4ccc(OC)c(OC)c4)ccc3n2)CC1,> 73.3 µM,> 100 µM,85.5 µM,> 100,38.5 µM,> 100 µM,,31.3 µM,> 100 µM,41.1 µM,> 30.1,> 34.4,0.572,11.8,> 50.5,16.4,10.5,11.1,13.4,
O=C1CCC2(c3ccc(Cl)cc3)Nc3cc(Cl)ccc3N12 (centres undefined),40.1 µM,24 µM,,,21.4 µM,24.3 µM,29.1 µM,,26.5 µM,24.6 µM,,,,,,,,,,
COC1C(OC(=S)Nc2ccccc2)c2ccccc2N1C(C)=O (centres undefined),,> 100 µM,92.2 µM,,> 100 µM,> 100 µM,> 100 µM,> 100 µM,> 100 µM,> 100 µM,,,,,,,,,,
Cc1nc(Nc2ccc(Cl)cc2)sc1C(=O)NNC(=S)NN,54 µM,45.7 µM,43.2 µM,,34.1 µM,32.3 µM,46.8 µM,38.3 µM,39.6 µM,29.1 µM,,,,,,,,,,
CCOC(=O)N[C@H]1CCc2cc(OC)c(OC)c(OC)c2-c2ccc(SC)c(=O)cc21,26.8 µM and > 100 µM,> 100 µM,> 100 µM,> 100,,61.3 µM and > 100 µM,> 100 µM,> 100 µM,> 100 µM,,< 0.01,,,,,,,,0.0198,< 0.01
NC1CCN(Cc2ccccc2)CC1,> 100 µM,> 100 µM,> 100 µM,> 100,> 100 µM,> 100 µM,,> 100 µM,> 100 µM,,> 100,> 100,> 100,> 100,> 100,,> 100,> 100,> 100,
COC(=O)/C(=C/c1ccc(OC)cc1)C(C(=O)O)=C1CCCC1,> 100 µM,> 100 µM,> 100 µM,,> 100 µM,> 100 µM,> 100 µM,> 100 µM,> 100 µM,> 100 µM,,,,,,,,,,
O=C(Nc1cccc(Cl)c1)C(=O)C(C(=O)c1ccc2ccccc2c1)C1OC(=O)c2ccccc21 (centres undefined),> 100 µM,82.7 µM,54.3 µM,,,21.2 µM,> 100 µM,30.5 µM,> 100 µM,,,,,,,,,,,
CCOC(=O)N1CCC(N[C@@H]2c3cc4c(cc3C(c3cc(OC)c(O)c(OC)c3)C3C(=O)OC[C@@H]32)OCO4)CC1 (some centres undefined),4.6 µM and 4.45 µM,1.63 µM and 1.86 µM,3.5 µM and 3.67 µM,,2.53 µM and 2.42 µM,6.51 µM and 8.32 µM,4.86 µM and 7.1 µM,0.887 µM and 2.88 µM,1.44 µM and 5.01 µM,1.89 µM and 2.08 µM,,,,,,,,,,
C#CC1/C(=C\C(=O)OC)CCCC1O (centres undefined),> 100 µM,> 100 µM,> 100 µM,,> 100 µM,> 100 µM,> 100 µM,> 100 µM,> 100 µM,> 100 µM,,,,,,,,,,
